The text below walks through data of US5618675A, “Methods and compositions for detecting lipopolysaccharides using CAP18 fragments” (Panorama Research, Inc., dated 1997).

Values joined by “and” are separate entries in the source; they are usually repeats but may differ in a detail not shown here. Equal entries are not always repeated.

One assay deals with RAW 264.7 cells. It is filed as cell-based, murine. As to conditions: for Inhibition of LPS-induced RNI-IC50: LPS-induced (2.5 ng/ml LPS in FIG. 6B). Here is the method:
From the sequence of the CAP18 cDNA, it was apparent that the putative N-terminal peptide of CAP18 was in fact an internal fragment of the CAP18 protein. We therefore tried to reconfirm the original protein sequence. Neutrophil-derived heparin bound cationic proteins were prepared as described above and applied to a C18 reverse phase HPLC (FIG. 1). We sequenced the major peaks. Peaks at fractions 14.5 and 15.2 correspond to defensins MCP1 and MCP2 (Territo et al. (1989) J. Clin. Invest. 84:2017-2019), respectively. Fraction 25.8 is macrophage related protein 14 (MRP14) (Odink et al. (1987) Nature 330:80-82). The fraction at 20.3 minutes corresponds to a fragment of CAP18 of approximately 4-5 kD. […] The murine macrophage cell line RAW 264.7 (obtained from ATCC) and thioglycolate-elicited murine peritoneal exudate cells are used to produce RNI. Cells are cultured at 1×10^6 /ml. in RPMI-1640 +2.5% FCS in 24 well plates in the presence or absence of different concentrations of LPS or murine rlFNγ. After 24 hr. incubation at 37° C. the cell free supernatant is collected and tested for the presence of RNI. Accumulation of nitrite in the medium is measured by a colorimetric assay based on the Griess reaction (Green et al. (1982) Anal. Biochem. 126:11) using sodium nitrite as standards. Sample (50 μl) is mixed with 50 μl of Griess reagent (1% sulfanilamide, 0.1% naphthalene diamine dihydrochloride, 2.5% H3 PO4) and after 10 min. at room temperature absorbance is read at 570 nm.

Assay [1] has as its system Salmonella minnesota ReLPS sensitized sheep erythrocytes. The experiment in a line: LPS hemagglutination assay (MAC). It is filed as binding. The method, then: For hemagglutination assays, erythrocytes were sensitized with LPS as follows. One ml of 1% erythrocyte suspension (human 0 type, C3H/HeN mouse or sheep) was mixed with 0.2 ml of LPS solution and incubated at 37° C. for 30 min, followed by washing with phosphate buffered saline (PBS), and then the concentration of suspension was adjusted to 1.0%. In the case of S-LPS, the solution was heated at 100° C. for 1 hour before sensitization of erythrocytes. […] Activity of CAP was expressed as a minimum agglutinating concentration (MAC) of CAP. According to the method of Kirikae et al. (1986) Microbiol. Immunol. 30:269-274, 50 μl of 2-fold serial dilution of Re-LPS was added to 50 μl of 1.0% rabbit erythrocyte suspension, and incubated at 37° C. for 3, hour. Minimum agglutinating concentration of Re-LPS was expressed as 1 HA unit.

In another assay the test system is Salmonella typhimurium. The experiment in a line: Antibacterial CFU assay.
For assay [2], the system named is thioglycolate-stimulated murine peritoneal macrophages. The experiment in a line: LPS-induced tissue factor generation by macrophages. The class given is cell-based. The note with it: peptide 1 μg/ml; 6 hr; FIG. 12. Here is the method: […] Cells were cultured for 6 hours prior to assay of tissue factor by clotting assay.
[…] Production of tissue factor after 6 hr. was measured by clotting assay. […] In the absence of LPS no tissue factor is synthesized by these cells.

The test system of a further assay is Salmonella minnesota Re. The experiment in a line: Antibacterial CFU assay. As to conditions: FIG. 6C.
In assay [3] the target is T1, purified human factor X (human, UniProt P00742). The experiment in a line: cell-based or functional assay.
In a further assay the target is purified human factor Xa (human, UniProt P00742). The experiment in a line: cell-based or functional assay.
Assay [4] concerns the target T1, purified human factor X. The experiment in a line: cell-based or functional assay. The source holds these as a separate data set.
The subject of the next assay is cells. The experiment in a line: Effect of CAP-37 on LPS-induced tissue factor generation. It is filed as cell-based. The note with it: for Tissue factor, figure in parentheses (relative to control = 1.0) / Tissue Factor / Activity: CAP-37 15 HA; for Activity: LPS alone = 100. The method, then: Table 6 presents a comparison of the effect of RNIP, CAP18, and defensins HP-1 and HP-2 (Territo et al. (1989) J. Clin. Invest. 84:2017-2019) on LPS-induced tissue factor generation. Tissue factor assays were performed as follows. Mouse peritoneal cells were elicted with an intraperitoneal injection of thioglycolate medium and harvested 5-days later by irrigation with pyrogen-free saline. The cells were washed with RPMI 1640 medium, counted and resuspended at a concentration of 1.5-2.0×10^6 /ml in serum-free RPMI medium containing glutamine (0.29 mg/ml), penicillin (50 units/ml) and streptomycin (50/ml). Adherent cells were prepared by incubating 10 ml of a cell suspension (in RPMI 1640 media in sterile culture bottle (Nunclon, 50 ml, Inter Med) for 60 min. at 37° C. in a 5% CO2 atmosphere. The plastic adherent cells were recovered by scraping of the bottle with a sterile rubber policeman. The adherent cells were then washed twice with RPMI media, resuspended in serum-free medium (1×10^6 /ml) in culture tube (Nunc cryotube, Inter Med), and stimulated with graded doses of LPS for 6 hr. at 37° C. in a 5% CO2. The cell suspension was centrifuged and cell pellet was frozen at -80° C. until clotting assays were run.
Veronal buffered saline (VBS) was added to the cell pellet, lysed by 3 cycles of freeze/thaw and sonicated for 10 sec with a hand-held sonicator microbe (Handy Sonic, model UR-20P, Tomy Seiko LTD, Tokyo). Tissue factor activity was tested in modified unactivated partial thromboplastin time (7). One tenth ml of cell lysate (1×10^6 /ml) was preincubated with mouse plasma at 37° C. for 3 min. Then 0.1 ml of 25 mM-CaCl2 which contains phospholipid was added to the mixture and clotting time was measured using a fibrometer (Bio Quest Division, Becton Dickinson, Cokeysville, USA). A standard curve obtained from serial two-fold dilutions of rabbit brain thromboplastic (Simplastin, Ono Pharmaceutical Co.) was used to transpose tissue factor activity into arbitrary tissue factor units (1 μg/ml) suspension of rabbit brain was assigned a value of 1,000 units).
.dagger. LPS was incubated with CAP37 at 37° C. for 2 hours, and
the mixture was added to cells, then cultured for 6 hours.

With “21-1: synthetic rabbit RNIP-derived fragment, amino acids 135-151 of SEQ ID NO:4 (GLRKRLRKFRNKIKEKL)”, the “Inhibition of LPS-induced RNI-IC50” value with RAW 264.7 cells was greater than 2 µg/mL. In addition, the “Hemagglutination MAC (minimum agglutinating concentration)” value (“Hemagglutination MAC” for short) in assay [1] was greater than 125 µg/mL.

As for “32-1: synthetic rabbit RNIP-derived fragment, amino acids 135-143 of SEQ ID NO:4 (GLRKRLRKF)”, the “anti-bacterial activity (CFU), words” value in the assay on Salmonella typhimurium (FIG. 6D) and in the assay on Salmonella minnesota Re was “not active” each time. Besides, the “effect on CFU at high concentrations alone and in various combinations” value in the assay with Salmonella typhimurium (FIG. 6F) is given as “No effect”. Moreover, the “effect of pretreatment with peptide 32-1 on bacterial killing by peptide 197” value in the assay on Salmonella typhimurium (FIG. 6G) is “no inhibition or augmentation”. Further, the “Inhibition of LPS-induced RNI-IC50” value with RAW 264.7 cells is greater than 2 µg/mL. For the same molecule, the “Hemagglutination MAC” value in [1] is greater than 125 µg/mL. Moreover, in [2], the “inhibition of LPS induced tissue factor” value is on record as “fail to inhibit”.

Take “34-1: synthetic rabbit RNIP-derived fragment, amino acids 140-166 of SEQ ID NO:4 (LRKFRNKIKEKLKKIGQKIQGLLPKLA)”: the “Inhibition of LPS-induced RNI-IC50” value in the assay with RAW 264.7 cells is greater than 2 µg/mL. Further, the “Hemagglutination MAC” value in [1] was greater than 125 µg/mL.

In the case of “50-1: synthetic rabbit RNIP-derived fragment, amino acids 147-171 of SEQ ID NO:4 (IKEKLKKIGQKIQGLLPKLAPRTDY)”, the “Inhibition of LPS-induced RNI-IC50” value with RAW 264.7 cells was 0.3 µg/mL. Further, in assay [1], the “Hemagglutination MAC” value was greater than 125 µg/mL.

On to “52-1: synthetic rabbit RNIP-derived fragment, amino acids 143-169 of SEQ ID NO:4 (FRNKIKEKLKKIGQKIQGLLPKLAPRT)”, for which, in the assay with RAW 264.7 cells, the “Inhibition of LPS-induced RNI-IC50” value is greater than 2 µg/mL. Moreover, in assay [1], the “Hemagglutination MAC” value was greater than 125 µg/mL.

Take “52-2: synthetic rabbit RNIP-derived fragment, amino acids 143-170 of SEQ ID NO:4 (FRNKIKEKLKKIGQKIQGLLPKLAPRTD)”: the “Inhibition of LPS-induced RNI-IC50” value in the assay on RAW 264.7 cells is greater than 2 µg/mL. Moreover, the “Hemagglutination MAC” value in assay [1] is greater than 125 µg/mL.

Regarding “52-3: synthetic rabbit RNIP-derived fragment, amino acids 132-171 of SEQ ID NO:4 as printed (EPTGLRKRLRKFRNKIKEKLKKIGQKIQGLLPKLAPRTDY)”, the “Inhibition of LPS-induced RNI-IC50” value with RAW 264.7 cells is greater than 2 µg/mL. Besides, the “Hemagglutination MAC” value in assay [1] is greater than 125 µg/mL.

For the molecule “54-1: synthetic rabbit RNIP-derived fragment, amino acids 139-170 of SEQ ID NO:4 (RLRKFRNKIKEKLKKIGQKIQGLLPKLAPRTD)”, the “Inhibition of LPS-induced RNI-IC50” value in the assay with RAW 264.7 cells is greater than 2 µg/mL. Besides, the “Hemagglutination MAC” value in assay [1] was greater than 125 µg/mL.

Consider “54-2: synthetic rabbit RNIP-derived fragment, amino acids 139-171 of SEQ ID NO:4 (RLRKFRNKIKEKLKKIGQKIQGLLPKLAPRTDY)”, for which the “Inhibition of LPS-induced RNI-IC50” value with RAW 264.7 cells is greater than 2 µg/mL. Also, the “Hemagglutination MAC” value in assay [1] is greater than 125 µg/mL.

“187: synthetic rabbit RNIP-derived fragment, amino acids 151-171 of SEQ ID NO:4 (LKKIGQKIQGLLPKLAPRTDY) [compound 187]”: in the assay on RAW 264.7 cells, the “activity in hemagglutination and inhibition of LPS-induced RNI” value was “inactive”; the “Inhibition of LPS-induced RNI-IC50” value was greater than 10 µg/mL. Also, the “Hemagglutination MAC” value in assay [1] is greater than 125 µg/mL.

Consider polymyxin B [reference compound], for which, in the assay on RAW 264.7 cells (LPS 5ng/ml, FIG. 4), the “inhibition of LPS-induced RNI production” value is on record as “inhibition”.

Consider GLRKRLRKFRNKIKEKLKKIGQKIQGLLPKLA [synthetic rabbit RNIP-derived peptide 36-1], for which, in the assay with purified human factor X [3], the “IC50, Russell Viper Venom induced clotting” value was 0.9 µg/ml and 0.2 µM. In the assay with purified human factor Xa, the “IC50, Xa-induced clotting” value is 2.2 µg/ml and 0.4 µM. In the assay with prothrombin (factor II), this molecule came in with an IC50, prothrombin activation by factor Xa (synthetic substrate) of less than 30 nM. In addition, in the assay with purified human factor X [4], the “IC50, RVV activation of factor X to Xa (synthetic substrate)” value is 10 µg/ml and 1.9 µM; the “IC50, factor X activation by tissue factor and factor VII (synthetic substrate)” value turned out to be 100 nM.

With GLRKRLRKFRNKIKEKLKKIGQKIQGLLPKLAPRTDY, in the assay with purified human factor X [3], the “IC50, Russell Viper Venom induced clotting” value was 0.7 µg/ml and 0.1 µM. Moreover, the “IC50, Xa-induced clotting” value with purified human factor Xa was 2.7 µg/ml and 0.5 µM. This molecule also gave an IC50, prothrombin activation by factor Xa (synthetic substrate) with prothrombin (factor II) of 50 nM. In the assay with purified human factor X [4], the “IC50, RVV activation of factor X to Xa (synthetic substrate)” value was 6.7 µg/ml and 1.1 µM.

B1: CAP-37: another cationic peptide CAP37 (azurocidin) (Morgan et al. 1991) (protein, UniProt P20160 27-248, looked up)
Azurocidin: IVGGRKARPRQFPFLASIQNQGRHFCGGALIHARFVMTAASCFQSQNPGVSTVVLGAYDLRRRERQSRQTFSISSMSENGYDPQQNLNDLMLLQLDREANLTSSVTILPLPLQNATVEAGTRCQVAGWGSQRSGGRLSRFPRFVNVTVTPEDQCRPNNVCTGVLTRRGGICNGDGGTPLVCEGLAHGVASFSLGPCGRGPDFFTRVALFRDWIDGVLNNPGP
As to B1, the “inhibition of tissue factor generation” value in the assay on cells is reported as “unable to inhibit”. Moreover, the results for the “Tissue factor, figure in parentheses (relative to control = 1.0)” value in the assay on cells (LPS 0.1 μg/ml), in the assay with cells (LPS 1.0 μg/ml) and with cells (no LPS) were 2.3, 3.9 and 1.1, respectively. Further, the Tissue Factor was found to be 383 ± 307 units/1 × 10^5 cells in the assay with cells (LPS 0.1 μg/ml, LPS alone 412 ± 30); 648 ± 343 units/1 × 10^5 cells in the assay with cells (LPS 1.0 μg/ml, LPS alone 692 ± 27); 183 ± 67 units/1 × 10^5 cells in the assay on cells (no LPS, control 168 ± 95). In addition, the Activity turned out to be 93.0 in the assay on cells (LPS 0.1 μg/ml) and 93.6 in the assay with cells (LPS 1.0 μg/ml).
